How the values were obtained:
Type in all cases: cell-based
VEEV = assay: microbe, parasite or virus in culture; conditions: Venezuelan equine encephalitis virus, NHDF
DENV = assay: Antiviral activity against DENV in HEK293 cells; conditions: Dengue virus
H1N1 strain = assay: Antiviral activity against Influenza H1N1 strain in MDCK cells; conditions: Influenza A virus
Experimental: (§1) The antiviral activity against Influenza viruses (H1N1 and H3N2 strains) evaluated in MDCK cells (4-6 hours pre-incubation with compound) shown in Table 5 below. VTR=Virus titer reduction in log at 20 μM concentration. NT: not tested, ND: not determined.

CHIKV = assay: Antiviral activity against CHIKV in NHDF cells; conditions: Chikungunya virus
H3N2 strain = assay: Antiviral activity against Influenza H3N2 strain in MDCK cells; conditions: Influenza A virus
Experimental: as §1

[1] = Cytotoxicity (CC50) in HEK293 cells; conditions: human, WNV
Experimental: (§2) As used herein, “CC50” is intended to refer to the concentration of a substance (e.g., a compound or a drug) that is required for 50% reduction of cell viability. In one aspect, an CC50 can refer to the concentration of a substance that is required for 50% reduction (i.e., cytotoxicity) in vivo, as further defined elsewhere herein.
The antiviral activity against Alpharviruses evaluated in HEK293 cells (4 hours pre-incubation with compound before infected with virus) is shown in Table 2 below. VTR=Virus titer reduction in log at 10 μM concentration. NT: not tested, ND: not determined

ZIKA = assay: Antiviral activity against ZIKA in HEK 293 cells; conditions: Zika virus
[2] = Cytotoxicity (CC50) in NHDF cells; conditions: human, CHIKV
Experimental: as §2
VTR=Virus titer reduction in log at 10 μM concentration. NT: not tested, ND: not determined.

[3] = Cytotoxicity (CC50) in MDCK cells; conditions: dog, H1N1
Experimental: as §2, §1

WNV = assay: Antiviral activity against WNV in HEK293 cells; conditions: West Nile virus
[4] = 4-6 hours pre-incubation with compound

CCCC(CCC)C(=O)Nc1cnn([C@@H]2O[C@H](CO)[C@@H](O)[C@H]2O)c(=O)n1 [Compound 18, N-(2-((2r,3r,4s,5r)-3,4-dihydroxy-5-(hydroxymethyl)-tetrahydrofuran-2-yl)-3-oxo-2,3-dihydro-1,2,4-triazin-5-yl)-2-propylpentanamide]
EC90 (VEEV; read-out: VEEV (NHDF cells) EC90): > 10000 nM
log reduction at 10 µM (VEEV; read-out: VEEV (NHDF cells) VTR (virus titer reduction)): 0.13
EC90 (DENV; HEK293, read-out: DENV (HEK293 cells) EC90): 200 nM
log reduction at 10 µM (DENV; HEK293, read-out: DENV (HEK293 cells) VTR (virus titer reduction)): 4
EC90 (H1N1 strain; [4]): 660 nM
log reduction at 20 µM (H1N1 strain; at 20 μM concentration, 4-6 hours pre-incubation, read-out: H1N1 strain (MDCK cells) VTR (virus titer reduction)): 3.3
EC90 (CHIKV; read-out: CHIKV (NHDF cells) EC90): 3200 nM
log reduction at 10 µM (CHIKV; read-out: CHIKV (NHDF cells) VTR (virus titer reduction)): 1.42
EC90 (H3N2 strain; [4]): 2780 nM
log reduction at 20 µM (H3N2 strain; at 20 μM concentration, 4-6 hours pre-incubation, read-out: H3N2 strain (MDCK cells) VTR (virus titer reduction)): 3.4
CC50 [1]: 30800 nM
EC90 (ZIKA; HEK293, read-out: ZIKA (HEK 293 cells) EC90): 100 nM
log reduction at 10 µM (ZIKA; HEK293, read-out: ZIKA (HEK 293 cells) VTR (virus titer reduction)): 2.7
CC50 [2]: > 40000 nM
CC50 [3]: 19600 nM
EC90 (WNV; HEK293, read-out: WNV (HEK293 cells) EC90): 400 nM
log reduction at 10 µM (WNV; HEK293, read-out: WNV (HEK293 cells) VTR (virus titer reduction)): 2.8
